A value given as a limit tells only on which side of the number the result lay.

The target of assay [1] is T1, Estrogen receptor beta (Homo sapiens, UniProt Q92731). Put plainly: Agonist activity at estrogen receptor beta ligand binding domain expressed in african green monkey COS7 cells co-transfected with Gal4-LBD up to 10 uM by luciferase reporter gene assay. The assay is classed as cell-based. Particulars: cos-7; call rule not given here.
Assay [2] has as its target T2, Progesterone receptor (Homo sapiens) (UniProt P06401).
T2 sequence (whole entry): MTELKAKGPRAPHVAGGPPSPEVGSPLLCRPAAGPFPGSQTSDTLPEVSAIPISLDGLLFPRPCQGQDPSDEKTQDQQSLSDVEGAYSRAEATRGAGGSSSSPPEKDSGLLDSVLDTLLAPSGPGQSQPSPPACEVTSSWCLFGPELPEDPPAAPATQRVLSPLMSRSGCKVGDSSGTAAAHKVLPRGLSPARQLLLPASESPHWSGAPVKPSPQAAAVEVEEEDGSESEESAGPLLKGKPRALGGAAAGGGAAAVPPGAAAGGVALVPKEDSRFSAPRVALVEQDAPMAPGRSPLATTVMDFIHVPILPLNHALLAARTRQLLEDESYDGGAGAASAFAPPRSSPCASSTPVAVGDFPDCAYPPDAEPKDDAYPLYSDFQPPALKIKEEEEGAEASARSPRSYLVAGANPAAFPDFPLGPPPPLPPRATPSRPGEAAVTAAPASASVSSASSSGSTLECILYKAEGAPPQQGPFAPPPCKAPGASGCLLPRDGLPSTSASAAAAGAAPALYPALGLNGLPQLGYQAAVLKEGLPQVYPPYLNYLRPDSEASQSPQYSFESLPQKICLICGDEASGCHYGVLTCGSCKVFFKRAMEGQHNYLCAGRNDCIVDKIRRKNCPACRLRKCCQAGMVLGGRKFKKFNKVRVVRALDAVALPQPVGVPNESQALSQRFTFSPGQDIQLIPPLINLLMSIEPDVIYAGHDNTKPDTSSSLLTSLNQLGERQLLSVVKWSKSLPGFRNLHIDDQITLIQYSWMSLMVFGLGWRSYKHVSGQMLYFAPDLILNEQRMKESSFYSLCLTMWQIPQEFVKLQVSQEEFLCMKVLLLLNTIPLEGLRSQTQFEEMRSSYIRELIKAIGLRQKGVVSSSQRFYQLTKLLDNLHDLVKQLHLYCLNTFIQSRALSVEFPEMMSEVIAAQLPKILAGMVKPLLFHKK
Put plainly: Activation of progesterone receptor in human T47D cells after 20 hrs by PRE-tagged luciferase reporter gene assay relative to control. The assay is classed as cell-based.

In assay [3] the target is T1, Estrogen receptor beta.
Description: Antagonist activity at estrogen receptor beta ligand binding domain expressed in african green monkey COS7 cells co-transfected with Gal4-LBD by luciferase reporter gene assay
For assay [4], the target named is T3, Estrogen receptor (Homo sapiens, UniProt P03372).
T3 sequence (P03372 whole entry): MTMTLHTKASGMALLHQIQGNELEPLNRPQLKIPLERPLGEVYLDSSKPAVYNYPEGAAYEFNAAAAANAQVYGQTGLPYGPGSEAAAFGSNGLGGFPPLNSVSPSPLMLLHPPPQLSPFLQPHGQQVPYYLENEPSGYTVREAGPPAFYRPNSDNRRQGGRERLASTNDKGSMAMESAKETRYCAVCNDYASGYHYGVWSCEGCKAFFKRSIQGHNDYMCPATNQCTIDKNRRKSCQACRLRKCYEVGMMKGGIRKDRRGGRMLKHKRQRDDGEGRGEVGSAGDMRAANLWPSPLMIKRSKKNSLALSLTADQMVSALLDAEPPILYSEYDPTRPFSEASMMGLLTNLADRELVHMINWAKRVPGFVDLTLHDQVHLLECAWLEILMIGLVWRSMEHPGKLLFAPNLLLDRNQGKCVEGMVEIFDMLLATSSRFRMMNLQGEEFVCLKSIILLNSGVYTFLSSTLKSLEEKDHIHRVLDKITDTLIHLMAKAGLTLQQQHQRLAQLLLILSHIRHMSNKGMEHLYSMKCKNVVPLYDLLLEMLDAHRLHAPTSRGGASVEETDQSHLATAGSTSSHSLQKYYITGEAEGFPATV
Put plainly: Agonist activity at estrogen receptor alpha ligand binding domain expressed in african green monkey COS7 cells co-transfected with Gal4-LBD by luciferase reporter gene assay. In kind it is cell-based, COS-7.

The target in assay [5] is T4, Mineralocorticoid receptor (Homo sapiens) (UniProt P08235).
T4 sequence (whole entry): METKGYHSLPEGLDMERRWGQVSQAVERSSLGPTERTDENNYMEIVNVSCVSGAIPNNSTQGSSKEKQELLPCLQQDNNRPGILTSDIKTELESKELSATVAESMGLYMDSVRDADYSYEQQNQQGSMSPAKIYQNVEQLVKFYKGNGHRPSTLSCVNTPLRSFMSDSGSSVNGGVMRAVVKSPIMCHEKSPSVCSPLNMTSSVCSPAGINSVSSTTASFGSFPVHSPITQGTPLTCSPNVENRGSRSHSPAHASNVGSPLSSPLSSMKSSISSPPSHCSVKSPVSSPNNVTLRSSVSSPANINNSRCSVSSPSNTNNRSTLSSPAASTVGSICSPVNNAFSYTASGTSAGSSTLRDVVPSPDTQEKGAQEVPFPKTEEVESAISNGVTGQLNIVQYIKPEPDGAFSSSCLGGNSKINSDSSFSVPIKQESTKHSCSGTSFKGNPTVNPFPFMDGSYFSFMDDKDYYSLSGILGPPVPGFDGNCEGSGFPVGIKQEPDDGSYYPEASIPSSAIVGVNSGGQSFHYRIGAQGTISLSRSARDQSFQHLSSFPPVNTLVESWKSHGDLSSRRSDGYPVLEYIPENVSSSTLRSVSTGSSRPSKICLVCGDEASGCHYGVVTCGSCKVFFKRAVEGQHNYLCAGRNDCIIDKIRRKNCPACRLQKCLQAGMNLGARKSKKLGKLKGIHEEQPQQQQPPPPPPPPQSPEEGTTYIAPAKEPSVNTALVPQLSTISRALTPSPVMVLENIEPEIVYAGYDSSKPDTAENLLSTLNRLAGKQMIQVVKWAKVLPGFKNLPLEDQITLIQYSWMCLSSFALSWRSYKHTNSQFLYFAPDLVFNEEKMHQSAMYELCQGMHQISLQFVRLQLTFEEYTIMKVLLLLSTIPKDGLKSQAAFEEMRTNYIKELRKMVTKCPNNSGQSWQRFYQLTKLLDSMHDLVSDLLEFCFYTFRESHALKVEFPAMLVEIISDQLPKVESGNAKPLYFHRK
Put plainly: Antagonist activity at mineralocorticoid receptor ligand binding domain expressed in african green monkey COS7 cells co-transfected with Gal4-LBD by luciferase reporter gene assay relative to control. In kind it is cell-based. On the set-up: scale not given: the % may be the effect or the level left. The settings on record: COS-7.

T1 sequence (Q92731 whole entry, the tested form may be a part): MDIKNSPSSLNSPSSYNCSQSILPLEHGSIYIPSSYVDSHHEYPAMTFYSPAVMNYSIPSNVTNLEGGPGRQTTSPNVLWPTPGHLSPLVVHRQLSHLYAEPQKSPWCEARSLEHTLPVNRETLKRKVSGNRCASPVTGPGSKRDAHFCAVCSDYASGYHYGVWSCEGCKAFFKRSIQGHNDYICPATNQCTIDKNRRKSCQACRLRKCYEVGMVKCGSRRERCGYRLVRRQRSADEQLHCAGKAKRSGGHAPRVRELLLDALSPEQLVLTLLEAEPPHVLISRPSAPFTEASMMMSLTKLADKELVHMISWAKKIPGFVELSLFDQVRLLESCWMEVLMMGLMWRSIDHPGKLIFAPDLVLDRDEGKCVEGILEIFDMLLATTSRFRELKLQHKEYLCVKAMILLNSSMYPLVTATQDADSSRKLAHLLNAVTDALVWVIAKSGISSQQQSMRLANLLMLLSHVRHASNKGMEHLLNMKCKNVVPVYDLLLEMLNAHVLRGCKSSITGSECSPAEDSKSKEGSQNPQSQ

For `CC1(C)C(=O)CC[C@]2(C)[C@@]3(C)c4[nH]c5ccccc5c4C[C@@H]3CC[C@@]12O` [LECANINDOLE B], the EC50 entry in assay [1] is “Not Active”; in assay [4], greater than 10 µM. Further, the Efficacy in assay [2] is less than 1%. This molecule also yielded an IC50 in assay [3] greater than 10 µM. In assay [5], this molecule yielded an Activity of 47%.

Regarding `CC1(C)[C@H](O)CC[C@]2(C)[C@@]3(C)c4[nH]c5ccccc5c4C[C@@H]3CC[C@@]12O` [LECANINDOLE D], the results for the EC50 result in assay [1] and in assay [4] were “Not Active” and greater than 10 µM, respectively. In addition, the Efficacy in assay [2] worked out at 68%. This molecule returned an IC50 in assay [3] greater than 3 µM. Besides, in assay [5], the Activity came out at 82%.

The values above are taken from ChEMBL document CHEMBL1154793, “The lecanindoles, nonsteroidal progestins from the terrestrial fungus Verticillium lecanii 6144” (J Nat Prod, 2009).
